The record followed here is ChEMBL document CHEMBL5150029, “Conformationally Defined Rexinoids for the Prevention of Inflammation and Nonmelanoma Skin Cancers” (J Med Chem, 2022).

The test system of test [1] is Mus musculus. The test is described as follows: Prevention of UVB-induced carcinogenesis in Ptch+/- / SHK-1 mouse assessed as reduction in tumor number at 20 mg/kg measured after twice a week of UVB irradiation for 34 weeks. It counts as functional.
Test [2] is described as follows: Induction of triglyceride level in Sprague-Dawley rat at 150 mg/kg in diet for 7 days relative to control. It counts as functional. The conditions noted are these: time 7 day.
The subject of test [3] is RAW264.7. Nature of the test: Antiinflammatory activity in LPS-induced mouse RAW264.7 cells assessed as reduction in CCL5 level at 10 uM after 6 hrs by RT-PCR analysis. It counts as functional, cell-based.
Test [4] relates to Epithelial cell. The test is described as follows: Downregulation of ACER1 gene expression in human organotypic epithelial cells at 0.2 uM incubated for 9 days with replacement of fresh compounds every other day by qPCR analysis. Format: functional, cell-based. The conditions noted are these: time 9.0 day. On the technique in general: In qPCR the cycle at which signal appears reflects the starting amount.

Test [5] relates to Epithelial cell. Nature of the test: Upregulation of RARG gene expression in human organotypic epithelial cells at 0.2 uM incubated for 9 days with replacement of fresh compounds every other day by qPCR analysis. Format: functional, cell-based. The conditions noted are these: time 9.0 day.
Test [6] relates to RAW264.7. The test is described as follows: Antiinflammatory activity in LPS-induced mouse RAW264.7 cells assessed as reduction in IL-1beta level at 10 uM after 6 hrs by RT-PCR analysis. It counts as functional, cell-based.
Test [7] concerns the target T1, Retinoic acid receptor RXR-alpha (Homo sapiens) (UniProt P19793).
T1 sequence (whole entry): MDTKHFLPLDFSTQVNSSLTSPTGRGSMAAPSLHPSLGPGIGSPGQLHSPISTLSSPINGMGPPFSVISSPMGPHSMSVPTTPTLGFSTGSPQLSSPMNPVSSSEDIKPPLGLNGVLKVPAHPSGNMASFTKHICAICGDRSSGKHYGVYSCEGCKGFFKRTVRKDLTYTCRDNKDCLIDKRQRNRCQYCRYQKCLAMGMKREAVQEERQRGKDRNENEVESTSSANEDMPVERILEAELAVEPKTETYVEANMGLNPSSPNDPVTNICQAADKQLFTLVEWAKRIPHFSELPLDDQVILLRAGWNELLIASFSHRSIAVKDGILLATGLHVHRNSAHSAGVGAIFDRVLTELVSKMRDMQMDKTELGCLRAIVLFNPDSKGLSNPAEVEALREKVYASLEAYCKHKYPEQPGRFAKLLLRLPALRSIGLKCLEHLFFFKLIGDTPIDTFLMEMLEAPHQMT
The conditions noted are these: filed as agonist.
Description: Binding affinity to human RXRalpha LBD (T225 to T462 residues) assessed as change in entropy by isothermal titration calorimetry

Test [8] concerns the target T2, Retinoic acid receptor RXR-alpha (Homo sapiens, UniProt P19793).
T2 sequence (P19793 whole entry): T1 sequence (whole entry)
The test is described as follows: Agonist activity at human GAL4-fused RXRalpha LBD (T225 to T462 residues) expressed in HEK293 cells incubated for 24 hrs by Dual-Glo luciferase assay. It counts as cell-based.

In test [9] the test system is Mus musculus. The test is described as follows: Prevention of UVB-induced carcinogenesis in Ptch+/- / SHK-1 mouse assessed as reduction in tumor number at 24 mg/kg measured after twice a week of UVB irradiation for 34 weeks (reference value: 8.16 +/- 1.87). Format: functional.
For test [10], the system named is Epithelial cell. Nature of the test: Downregulation of MCM7 gene expression in human organotypic epithelial cells at 0.2 uM incubated for 9 days with replacement of fresh compounds every other day by qPCR analysis. It counts as functional, cell-based. The conditions noted are these: time 9.0 day.
The subject of test [11] is Epithelial cell. Nature of the test: Upregulation of CRABP2 gene expression in human organotypic epithelial cells at 0.2 uM incubated for 9 days with replacement of fresh compounds every other day by qPCR analysis. It counts as functional, cell-based. The conditions noted are these: time 9.0 day.
Test [12] concerns the target T1, Retinoic acid receptor RXR-alpha (Homo sapiens). The note with it: filed as agonist. This is another data set of the same source.
Description: Binding affinity to human RXRalpha LBD (T225 to T462 residues) assessed as change in enthalpy by isothermal titration calorimetry
In test [13] the test system is Epithelial cell. Nature of the test: Upregulation of LRAT gene expression in human organotypic epithelial cells at 0.2 uM incubated for 9 days with replacement of fresh compounds every other day by qPCR analysis. Format: functional, cell-based. The conditions noted are these: time 9.0 day.
The test system of test [14] is RAW264.7. The test is described as follows: Antiinflammatory activity in LPS-induced mouse RAW264.7 cells assessed as reduction in Csf3 level at 10 uM after 6 hrs by RT-PCR analysis. It counts as functional, cell-based.
The test system of test [15] is Epithelial cell. The test is described as follows: Upregulation of RARB gene expression in human organotypic epithelial cells at 0.2 uM incubated for 9 days with replacement of fresh compounds every other day by qPCR analysis. The conditions noted are these: time 9.0 day. Format: functional, cell-based.
The test system of test [16] is RAW264.7. Nature of the test: Antiinflammatory activity in LPS-induced mouse RAW264.7 cells assessed as reduction in CCL22 level at 10 uM after 6 hrs by RT-PCR analysis. Format: functional, cell-based.
Test [17] has as its system Epithelial cell. The test is described as follows: Upregulation of STRA6 gene expression in human organotypic epithelial cells at 0.2 uM incubated for 9 days with replacement of fresh compounds every other day by qPCR analysis. The conditions noted are these: time 9.0 day. It counts as functional, cell-based.
In test [18] the target is T2, Retinoic acid receptor RXR-alpha. Nature of the test: Binding affinity to human RXRalpha LBD (T225 to T462 residues) by fluorescence quenching assay.
For test [19], the system named is Mus musculus. Nature of the test: Prevention of UVB-induced carcinogenesis in Ptch+/- / SHK-1 mouse assessed as reduction in tumor number at 24 mg/kg measured after twice a week of UVB irradiation for 34 weeks (reference value: 100 %). Format: functional. Set-up: scale not given: the % may be the effect or the level left.
Test [20] concerns the target T1, Retinoic acid receptor RXR-alpha (Homo sapiens). The note with it: filed as agonist. This is another data set of the same source.
Description: Binding affinity to human RXRalpha LBD (T225 to T462 residues) assessed as gibbs free energy change by isothermal titration calorimetry
For test [21], the system named is RAW264.7. Nature of the test: Antiinflammatory activity in LPS-induced mouse RAW264.7 cells assessed as reduction in IL-6 level at 10 uM after 6 hrs by RT-PCR analysis. Format: functional, cell-based.
For test [22], the target named is T2, Retinoic acid receptor RXR-alpha. Nature of the test: Binding affinity to human RXRalpha LBD (T225 to T462 residues) assessed as binding constant by isothermal titration calorimetry. (In ITC the heat of successive injections is recorded.)
The test system of test [23] is RAW264.7. Nature of the test: Antiinflammatory activity in LPS-induced mouse RAW264.7 cells assessed as reduction in Saa3 level at 10 uM after 6 hrs by RT-PCR analysis. It counts as functional, cell-based.
Test [24] relates to RAW264.7. The test is described as follows: Antiinflammatory activity in LPS-induced mouse RAW264.7 cells assessed as reduction in IL27 level at 10 uM after 6 hrs by RT-PCR analysis. It counts as functional, cell-based.
Test [25] is described as follows: Induction of triglyceride level in Sprague-Dawley rat at 200 mg/kg in diet for 7 days relative to control (reference value: 0 %). Format: functional. The conditions noted are these: time 7 day.
Test [26] can be described thus: Induction of triglyceride level in Sprague-Dawley rat at 200 mg/kg in diet for 7 days (reference value: 89 +/- 10 mg/dl). Format: functional. The conditions noted are these: time 7 day.
Test [27] deals with Epithelial cell. The test is described as follows: Upregulation of RBP1 gene expression in human organotypic epithelial cells at 0.2 uM incubated for 9 days with replacement of fresh compounds every other day by qPCR analysis. Format: functional, cell-based. The conditions noted are these: time 9.0 day.
Test [28] has as its system Epithelial cell. Nature of the test: Downregulation of LOR gene expression in human organotypic epithelial cells at 0.2 uM incubated for 9 days with replacement of fresh compounds every other day by qPCR analysis. Format: functional, cell-based. The conditions noted are these: time 9.0 day.
The test system of test [29] is Epithelial cell. Nature of the test: Upregulation of RDH10 gene expression in human organotypic epithelial cells at 0.2 uM incubated for 9 days with replacement of fresh compounds every other day by qPCR analysis. Format: functional, cell-based. The note with it: time 9.0 day.
Test [30] deals with Mus musculus. Nature of the test: Prevention of UVB-induced carcinogenesis in Ptch+/- / SHK-1 mouse assessed as reduction in tumor number at 25 mg/kg measured after twice a week of UVB irradiation for 34 weeks (reference value: 8.16 +/- 1.87). Format: functional.
Test [31] has as its system Mus musculus. Nature of the test: Prevention of UVB-induced carcinogenesis in Ptch+/- / SHK-1 mouse assessed as reduction in tumor number at 25 mg/kg measured after twice a week of UVB irradiation for 34 weeks (reference value: 100 %). Set-up: scale not given: the % may be the effect or the level left. It counts as functional.
Test [32] is described as follows: Induction of triglyceride level in Sprague-Dawley rat at 60 mg/kg in diet for 7 days relative to control. Format: functional. The conditions noted are these: time 7 day.

The source made the active and inactive calls. The rule behind the calls is not given here.

Turning to `CC(=C/C=C/C(C)=C/C(=O)O)/C=C1\CCCc2ccccc21` [UAB-30], in test [1], the Activity came to 5.4.
Take `C=C(c1ccc(C(=O)O)cc1)c1cc2c(cc1C)C(C)(C)CCC2(C)C` [BEXAROTENE]: the Activity in [2] came to 350%.
On to `CCCC1=C(CCC(C)C)/C(=C/C(C)=C\C=C\C(C)=C\C(=O)O)CCC1`, for which the result in test [3], in [4], in [5], in test [6], in test [10] and in test [11] was Active. Further, the result in test [13], in test [14], in [15], in [16], in test [17] and in test [21] was Active. In addition, the outcome in [23], in [24], in test [27], in test [28] and in test [29] was Active. The compound further came in with a TdeltaS in test [7] of 0.38 kcal/mol. Moreover, the EC50 in [8] was found to be 61 nM. The Activity was found to be 3 in test [9], 63% in [19], 80% in test [25] and 160 mg/dL in [26]. Moreover, in test [12], the deltaH is -7.4 kcal/mol. The Kd in test [18] came out at 3.6 nM; in test [22], 2000 nM. Also, the deltaG in [20] was -7.8 kcal/mol.
`CC(=C/C=C/C(C)=C/C(=O)O)/C=C1\CCCC(CCC(C)C)=C1CCC(C)C`: the result in [3], in test [4], in [5], in test [6], in [10] and in test [11] was Active. Also, the outcome in test [13], in test [14], in test [15], in test [16], in test [17] and in [21] was Active. The outcome in [23], in test [24], in [27], in test [28] and in test [29] was Active. For the same compound, the Activity in [25] was 20%; in [26], 107 mg/dL.
In test [7], `CCC(C)C1=C(CCC(C)C)/C(=C/C(C)=C\C=C\C(C)=C\C(=O)O)CCC1` (mixture of isomers) returned a TdeltaS of 2.38 kcal/mol. A half-maximal response in test [8] (EC50) required 23 nM. Besides, in test [12], the deltaH is -5.1 kcal/mol. Also, the Kd in test [18] came to 4.1 nM; in test [22] it was 3500 nM. The deltaG in [20] was -7.5 kcal/mol. Moreover, the results for the Activity in test [25] and in [26] were 211% and 277 mg/dL, respectively.
As for `CCCCC1=C(CCC(C)C)/C(=C/C(C)=C\C=C\C(C)=C\C(=O)O)CCC1`, the result in test [3], in test [6], in test [14], in [16], in test [21] and in test [23] was Active. In test [24], the outcome was Active. The Activity in test [30] stood at 1.44; in test [31], 82%; in [25], 13%; in test [26], 101 mg/dL. In test [7], this compound gave a TdeltaS of 0.76 kcal/mol. Besides, in [8], the EC50 stood at 210 nM. The deltaH in test [12] is -6.8 kcal/mol. For the same compound, the figures for the equilibrium dissociation constant (Kd) in [18] and in [22] were 4.7 nM and 3100 nM, respectively. Further, the deltaG in [20] is -7.5 kcal/mol.
Compound `CC1=C(/C=C/C(C)=C\C=C\C(C)=C\C(=O)O)C(C)(C)CCC1` [ALITRETINOIN] yielded an Activity in test [32] of 400%.

In general, EC50 refers to the concentration giving half of the maximal effect. One may read the Kd as a measure of binding affinity in units of concentration.
